Like-named read-outs stand apart in the source and are kept apart here.

Usually inhibition stands for the percentage by which the read-out fell short of the control. Usually IC50 stands for the concentration that gives 50% inhibition.

One test deals with T1, α-amylase (Sus scrofa, UniProt P00690).
T1 construct: α-amylase (EC 232-565-6, powder, ≥5 units/mg solid) isolated from porcine pancreas; purchased Sigma-Aldrich Co; host or cells: porcine pancreas
T1 sequence (P00690 16-511): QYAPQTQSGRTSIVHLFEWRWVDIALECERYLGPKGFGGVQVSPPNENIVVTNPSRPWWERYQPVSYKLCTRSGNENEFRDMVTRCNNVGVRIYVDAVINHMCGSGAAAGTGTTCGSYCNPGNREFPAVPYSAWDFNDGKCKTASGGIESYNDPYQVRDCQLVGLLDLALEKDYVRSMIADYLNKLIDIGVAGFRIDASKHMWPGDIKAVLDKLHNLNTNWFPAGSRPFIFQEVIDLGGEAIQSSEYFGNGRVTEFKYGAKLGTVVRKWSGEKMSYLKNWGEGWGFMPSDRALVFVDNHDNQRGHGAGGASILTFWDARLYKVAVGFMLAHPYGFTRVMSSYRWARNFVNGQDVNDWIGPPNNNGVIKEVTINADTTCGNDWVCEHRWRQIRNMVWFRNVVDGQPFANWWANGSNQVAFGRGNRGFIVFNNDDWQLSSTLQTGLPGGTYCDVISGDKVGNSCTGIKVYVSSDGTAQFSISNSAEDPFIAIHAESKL
Briefly: In vitro α-amylase activity assay (G3-CNP, absorbance 405 nm). It counts as biochemical, porcine. The note with it: for inhibition at 500 µM: read-out: α-Amylase inhibition. As for the experimental part: (§1) The other reagents used in this experiment are analytically pure reagents purchased from Sigma-Aldrich Co. (St. Louis, MI, USA) unless specified otherwise.
The in vitro […] activity assay was determined using spectrophotometry, as previously reported, with only minor modifications. A total of 5 U/mL of α-amylase and the appropriate quantity of 2-chloro-4-nitrophenyl α-D-maltotrioside (G3-CNP) were produced. […] Gradient dilution with a phosphate-buffered solution was used to create sample solutions of various concentrations. First, different concentrations of compound (10 μL), an enzyme solution (40 μL), and potassium phosphate buffer (100 μL) were pre-incubated in 96-well plates at 37 °C for 10 min.
(§2) The enzymatic inhibitory activity of the tested compounds was calculated using the following formula: Inhibition %=[(Abs control−Abs sample)/Abs control]×100
(§3) The IC50 values of the tested compounds were calculated using nonlinear fitting (logit method).

For the next test, the target named is T2, α-glucosidase (Saccharomyces cerevisiae, UniProt P53341).
T2 construct: purchased Sigma-Aldrich Co
The experiment in a line: biochemical. The note with it: for inhibition at 500 µM: read-out: α-Glucosidase inhibition. The procedure: as §1
The in vitro α-glucosidase activity assay was determined using spectrophotometry, as previously reported, with only minor modifications. In phosphate buffer with a pH of 6.8, 0.5 U/mL of α-glucosidase and the appropriate quantity of p-nitrophenyl-D-glucopyranoside (pNGP) were produced. […] Gradient dilution with a phosphate-buffered solution was used to create sample solutions of various concentrations. First, different concentrations of compound (10 μL), an enzyme solution (40 μL), and potassium phosphate buffer (100 μL) were pre-incubated in 96-well plates at 37 °C for 10 min.
as §2, §3

The next test concerns db/db mice. Briefly: Postprandial blood glucose level measurement after oral starch load. It is filed as in vivo. The note with it: 100 mg/kg, oral starch 2 g/kg. As for the experimental part:
db/db mice and C57BL/6J mice were purchased f0rom Beijing Zhishan Health Medical Research Institute. The animal testing procedure was approved by Beijing Huayuan Times Technology Co., Ltd Ethics Committee on the Management and Welfare of Laboratory Animals. (Ethics review batch number: HYSD2023-04) and strictly follows the local and national codes of ethics. All mice were placed in a control chamber at 25 °C and 60% relative humidity with a light/dark period of 12/12 h. During this period, all mice had free access to normal feed and water. […] All mice were given starch (2 g/kg) orally 60 min after treatment. Blood samples were taken from the caudal vein and blood glucose was measured after 0, 30, 60, and 120 min. The area under the curve (AUC) was calculated using the trapezoidal rule.

Where [1] appears, read: read-out: α-amylase inhibition IC50±SEM.
Where [2] appears, read: read-out: α-glucosidase inhibition IC50±SEM.

T2 sequence (P53341 whole entry): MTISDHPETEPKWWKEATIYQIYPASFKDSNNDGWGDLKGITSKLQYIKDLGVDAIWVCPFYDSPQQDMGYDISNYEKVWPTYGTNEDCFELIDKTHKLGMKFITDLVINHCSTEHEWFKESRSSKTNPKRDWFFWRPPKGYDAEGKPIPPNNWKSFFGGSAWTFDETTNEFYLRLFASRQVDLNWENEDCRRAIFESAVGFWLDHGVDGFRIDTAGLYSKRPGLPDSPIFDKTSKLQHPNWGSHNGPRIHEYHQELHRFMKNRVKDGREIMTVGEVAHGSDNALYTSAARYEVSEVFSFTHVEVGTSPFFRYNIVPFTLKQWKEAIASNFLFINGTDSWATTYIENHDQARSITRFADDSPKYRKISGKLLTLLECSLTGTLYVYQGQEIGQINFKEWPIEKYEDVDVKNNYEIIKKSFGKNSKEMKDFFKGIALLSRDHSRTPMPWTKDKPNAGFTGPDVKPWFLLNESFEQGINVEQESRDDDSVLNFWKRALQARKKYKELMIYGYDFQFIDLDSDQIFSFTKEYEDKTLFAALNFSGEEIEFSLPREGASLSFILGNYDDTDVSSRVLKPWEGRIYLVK

`C[C@H]1O[C@H](O[C@H]2[C@H](O)[C@@H](O)[C@@H](O[C@H]3[C@H](O)[C@@H](O)C(O)O[C@@H]3CO)O[C@@H]2CO)[C@H](O)[C@@H](O)[C@@H]1N[C@H]1C=C(CO)[C@@H](O)[C@H](O)[C@H]1O` (stereo partly drawn) [Acarbose, reference compound]: the inhibition at 500 µM turned out to be 99% on α-amylase and 49% on α-glucosidase. Also, in the test with db/db mice, the “glucose AUC” value was determined as 43.0 mmol·h/L. Moreover, the “reduction of glucose AUC of diabetic mice” value in the test on db/db mice (vs model) turned out to be 20.31%.
For `O=c1cc(-c2ccc(O)cc2)oc2cc(O[C@@H]3O[C@H](CO)[C@@H](O)[C@H](O)[C@H]3O)cc(O)c12` [Apigetrin], at α-amylase (at 500 µM), the inhibition at 500 µM amounted to 12%. On α-glucosidase, the IC50 is 187 ± 6.93 µM and the inhibition at 500 µM was 74%. The “selectivity for glucosidase over α-amylase among the 12 compounds” value at α-glucosidase (inhibition at 500 µM of both enzymes compared) was “selective inhibition of glucosidase”.
As to `O=c1c(O[C@@H]2O[C@@H](CO)[C@H](O)[C@H]2O)c(-c2ccc(O)c(O)c2)oc2cc(O)cc(O)c12` [Avicularin], the IC50 against α-amylase and against α-glucosidase was over 500 µM each time. Besides, the values for the inhibition at 500 µM at α-amylase (at 500 µM) and on α-glucosidase were 19% and 33%, respectively.
Turning to `O=C(O[C@@H]1Cc2c(O)cc(O)cc2O[C@@H]1c1ccc(O)c(O)c1)c1cc(O)c(O)c(O)c1` [Epicatechin gallate], the figures for the inhibition at 500 µM on α-amylase (at 500 µM) and on α-glucosidase were 62% and 61%, respectively. Further, the IC50 at α-amylase (setting [1]) and on α-glucosidase was over 250 µM throughout.
`O=c1c(O[C@@H]2O[C@H](CO)[C@H](O)[C@H](O)[C@H]2O)c(-c2ccc(O)c(O)c2)oc2cc(O)cc(O)c12` [Hyperoside]: the inhibition at 500 µM is 28% on α-amylase (at 500 µM) and 48% on α-glucosidase. The IC50 at α-amylase (setting [1]) and against α-glucosidase was over 500 µM in each case.
On α-amylase, `O=c1cc(-c2ccc(O)cc2)oc2cc(O)c([C@@H]3O[C@H](CO)[C@@H](O)[C@H](O)[C@H]3O)c(O)c12` [Isovitexin] gave an IC50 of over 500 µM. Also, the inhibition at 500 µM on α-amylase (at 500 µM) stood at 43%.
As for `O=c1cc(-c2ccccc2)oc2cc(O[C@@H]3O[C@H](CO)[C@@H](O)[C@H](O)[C@H]3O)c(O)c(O)c12` [Oroxin A], the inhibition at 500 µM is 60% on α-amylase (at 500 µM) and 10% at α-glucosidase. For the same compound, the IC50 on α-amylase (setting [1]) is over 250 µM; on α-glucosidase (setting [2]), over 500 µM.
As to `O=c1c(O)c(-c2ccc(O)c(O)c2)oc2cc(O[C@@H]3O[C@H](CO)[C@@H](O)[C@H](O)[C@H]3O)c(O)c(O)c12` [Quercetagitrin], the inhibition at 500 µM amounted to 71% on α-amylase (at 500 µM) and 56% at α-glucosidase. Besides, the IC50 on α-amylase (setting [1]) is over 125 µM; at α-glucosidase (setting [2]), over 250 µM.
As for `C[C@@H]1O[C@@H](Oc2c(-c3ccc(O)c(O)c3)oc3cc(O)cc(O)c3c2=O)[C@H](O)[C@H](O)[C@H]1O` [Quercitrin], the inhibition at 500 µM at α-amylase (at 500 µM) turned out to be 22%; at α-glucosidase, 38%. Besides, the IC50 on α-amylase (setting [1]) and against α-glucosidase was over 500 µM in each case.
Take `O=C(O)C1OC(Oc2c(-c3ccc(O)c(O)c3)oc3cc(O)cc(O)c3c2=O)C(O)C(O)C1O` (stereo not drawn) [Quercituron]: the inhibition at 500 µM on α-amylase (at 500 µM) amounted to 42%; at α-glucosidase it was 17%. For the same compound, the IC50 on α-amylase (setting [1]) and on α-glucosidase (setting [2]) was over 500 µM throughout.
On to `O=c1c(O[C@@H]2O[C@H](CO)[C@H](O)[C@H](O)[C@H]2O)c(-c2ccc(O)cc2)oc2cc(O)cc(O)c12` [Trifolin], for which the inhibition at 500 µM at α-amylase (at 500 µM) came to 19%. Further, the concentration for half-maximal inhibition (IC50) at α-amylase (setting [1]) was over 500 µM.
On α-amylase (at 500 µM), Catechin gallate showed a α-Amylase inhibition of 82%. At α-glucosidase (at 500 µM), this compound registered a α-Glucosidase inhibition of 94%.

For the origin of these results see article PMC10528180 (Foods, 2023).
